Data: patent US20130072509A1, “PTEROSTILBENE AND STATIN COMBINATION FOR TREATMENT OF METABOLIC DISEASE, CARDIOVASCULAR DISEASE, AND INFLAMMATION” (ChromaDex Inc., priority 2011, published 2013)
Where two headings read alike, the source gives them in different places.

Tests used:
[1] = system: rat smooth muscle cells; settings: in vitro; cited from earlier work
[2] = cited from earlier work; for bioavailability: in vivo
[3] = mice, 28-day subacute; 160 pound human equivalent doses of approximately 125 mg/day, 1.25 g/day and 12.5 g/day; cited from earlier work
[4] = Human clinical trial in dyslipidemia patients: lipids and blood pressure; format: in vivo
Description: The following is a general study design for human clinical trial to assess efficacy of pterostilbene, in combination with a statin, to lower cholesterol and/or lower blood pressure, among other measured endpoints including markers for oxidative stress. The study type is interventional: a randomized, double-blind, placebo controlled study. Endpoint Classification: Safety/Efficacy Study.
The purpose of this study is to evaluate whether pterostilbene alone, or a combination of pterostilbene and a statin compound, will help control cholesterol and blood pressure, as well as improve markers for oxidative stress in patients with dyslipidemia meeting inclusion criteria. The investigators will assess the safety of pterostilbene in these patients. Further, 33% of all subjects, spread randomly across all study groups, will be undergoing concurrent statin therapy but still satisfy the inclusion criteria of a previous TC≧200 mg/dL, and/or a LDL-C≧100 mg/dL.
Sixty subjects, divided into three groups: 20 per study group. Ages eligible for study: 18 to 88 years, both genders. No healthy volunteers accepted. Inclusion criteria: patients ≧18 years of age with a previous TC≧200 mg/dL, and/or a LDL-C≧100 mg/dL on either no therapy or stable therapy. Any concomitant cholesterol medication must be at a stable dose for at least 2 months prior to baseline laboratory and not listed in the exclusion criteria. Exclusion criteria: patients with significant hepatic, renal or gastrointestinal tract disease, receiving thiazolidinediones or fibric acid derivatives, current overt cardiovascular disease, women of reproductive potential not receiving birth control, and pregnant/nursing women.
Evaluation Criteria for clinical measurement: 1. Primary outcome measures: lipid laboratory markers (i.e., change in baseline TC, LDL-C, triglycerides (TG), HDL-C, non-HDL-C); 2. Secondary outcome measures: blood pressure (i.e., change in baseline systolic blood pressure and/or diastolic blood pressure); basic metabolic panel; AST (aspartate aminotransferase); ALT (alanine aminotransferase); and/or oxidative stress markers (i.e., change in baseline urine-derived markers of stress (e.g., isoprostanes: iPF2-Alpha-III/creat; iPF2-Alpha-VI/creat; 2,3 Dinor-iPF2-Alpha-III/creat)).
Subjects will be divided into three groups or arms: (1) high dose pterostilbene, 125 mg twice daily by mouth for 6 to 8 weeks; (2) low dose pterostilbene, 50 mg twice daily by mouth for 6 to 8 weeks; (3) matching placebo taken twice daily by mouth for 6 to 8 weeks; either one hour before or two hours after a meal. Further, as stated above, 33% of all subjects, spread randomly across all study groups, will be undergoing concurrent statin therapy. […]

[5] = molecular target: T1, CYP1A1 (Homo sapiens, UniProt P04798); settings: human recombinant; cited from earlier work
T1 sequence (P04798 1-512): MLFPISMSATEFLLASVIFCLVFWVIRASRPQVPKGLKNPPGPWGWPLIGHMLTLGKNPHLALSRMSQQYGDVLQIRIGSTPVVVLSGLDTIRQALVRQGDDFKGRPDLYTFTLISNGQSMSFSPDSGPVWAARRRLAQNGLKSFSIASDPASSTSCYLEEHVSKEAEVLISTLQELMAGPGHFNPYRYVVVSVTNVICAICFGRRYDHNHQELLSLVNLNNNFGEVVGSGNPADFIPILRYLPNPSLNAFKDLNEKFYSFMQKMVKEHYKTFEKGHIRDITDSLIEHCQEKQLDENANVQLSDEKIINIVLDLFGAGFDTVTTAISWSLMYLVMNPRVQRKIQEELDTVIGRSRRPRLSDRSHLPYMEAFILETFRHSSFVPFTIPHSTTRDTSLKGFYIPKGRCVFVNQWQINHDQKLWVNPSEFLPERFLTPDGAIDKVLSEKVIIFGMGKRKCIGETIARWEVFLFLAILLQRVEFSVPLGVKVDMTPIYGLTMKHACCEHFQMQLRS

[6] = molecular target: T2, PPAR-alpha (Rattus norvegicus, UniProt P37230); settings: cited from earlier work
T2 construct: endogenous in cells; host or cells: H4IIEC3 rat liver cells
T2 sequence (P37230 1-468): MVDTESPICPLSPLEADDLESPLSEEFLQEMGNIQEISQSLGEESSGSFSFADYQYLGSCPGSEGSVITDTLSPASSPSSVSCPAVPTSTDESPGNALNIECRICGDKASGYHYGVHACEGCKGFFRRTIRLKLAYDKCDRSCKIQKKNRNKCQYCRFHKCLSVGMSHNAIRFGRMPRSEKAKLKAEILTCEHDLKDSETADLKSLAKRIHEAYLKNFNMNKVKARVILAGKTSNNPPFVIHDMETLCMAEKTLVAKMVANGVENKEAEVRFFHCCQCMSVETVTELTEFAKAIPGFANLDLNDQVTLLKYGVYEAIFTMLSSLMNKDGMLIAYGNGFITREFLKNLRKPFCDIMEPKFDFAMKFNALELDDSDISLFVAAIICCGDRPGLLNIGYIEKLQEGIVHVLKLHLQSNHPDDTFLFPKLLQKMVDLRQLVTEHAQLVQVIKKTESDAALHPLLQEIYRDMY

[7] = molecular target: T3, CYP1B1 (Homo sapiens, UniProt Q16678); settings: human recombinant; cited from earlier work
T3 sequence (Q16678 1-543): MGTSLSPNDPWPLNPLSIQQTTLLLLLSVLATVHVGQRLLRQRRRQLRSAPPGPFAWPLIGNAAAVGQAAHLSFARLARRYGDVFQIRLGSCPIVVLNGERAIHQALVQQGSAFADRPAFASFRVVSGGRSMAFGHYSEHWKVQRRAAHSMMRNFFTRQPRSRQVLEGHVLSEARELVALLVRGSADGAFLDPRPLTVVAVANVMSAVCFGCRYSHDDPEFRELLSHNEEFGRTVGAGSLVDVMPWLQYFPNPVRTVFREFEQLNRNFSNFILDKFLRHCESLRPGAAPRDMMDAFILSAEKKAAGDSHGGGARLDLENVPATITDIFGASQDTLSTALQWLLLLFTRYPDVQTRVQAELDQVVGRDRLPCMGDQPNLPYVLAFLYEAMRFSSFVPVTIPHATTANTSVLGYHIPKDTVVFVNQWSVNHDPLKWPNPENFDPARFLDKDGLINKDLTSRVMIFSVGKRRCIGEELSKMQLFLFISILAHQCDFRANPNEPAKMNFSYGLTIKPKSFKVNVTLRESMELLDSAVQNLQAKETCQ

[8] = system: H4IIEC3 rat liver cells; settings: 100 μM; cited from earlier work
[9] = after 8 weeks, oral twice daily, pterostilbene alone
[10] = 100 μM, H4IIEC3 rat liver cells

SMILES | proliferation of rat smooth muscle cells [1] | half life t1/2 in blood [2] [min] | bioavailability [2] | local or systemic toxicity [3] | change in LDL-C level [4, 9] | change in TC level [4, 9] | reduction in diastolic blood pressure ([4]; high dose (250 mg daily), including patients receiving a statin, p<0.001) [mmHg] | reduction in systolic blood pressure ([4]; high dose (250 mg daily), including patients receiving a statin, p<0.01) [mmHg] | CYP1A1 inhibition [5] | PPAR-alpha activation over the control [6, 10] [fold] | PPAR-alpha activation relative to 100 μM of ciprofibrate [6, 10] [fold] | PPAR-alpha activation over the control ([6]; 300 μM, H4IIEC3 rat liver cells) [fold] | PPAR-alpha activation (in words) ([6]; study of a group of similar stilbenes, in a manner similar to ciprofibrate) | CYP1B1 inhibition [7] | Toxicity to cells [8]
COc1cc(/C=C/c2ccc(O)cc2)cc(OC)c1 [pterostilbene, 3,5-dimethoxy-4′-hydroxy-trans-stilbene] | inhibit the proliferation | 74 to 105 | orally bioavailable | no local or systemic toxicity | slight increases | slight increases | −7.3 | −7.8 | shown to inhibit | 8 | ~2 | 14 | activated PPAR-alpha | shown to inhibit | –
Oc1ccc(C=Cc2cc(O)cc(O)c2)cc1 [resveratrol, reference compound] | – | 10 to 14 | poor bioavailability | – | – | – | – | – | – | – | – | – | – | – | toxic to cells
